Holding throughout (assay type): cell-based, rat
For experiment [1], the system named is p42/44 MAPK (Thr202/Tyr204). The experiment is described as follows: Western blot of MAPK phosphorylation in H4IIE cells. As to conditions: for phosphorylation of MAPK (FIG. 9): 6 minutes, insulin 250 nM, 2 μL of BWE, D-CI or MI solution. On the procedure: Tissue culture media, antibiotics, fetal bovine serum (FBS) and Nunc tissue culture plates were purchased from Invitrogen Canada Inc. (Burlington, Ontario, Canada, L7P 1A1). Insulin (Sigma-Aldrich Canada Ltd., Oakville, Ontario, Canada, L6H 6J8) was dissolved in water and added directly to cells at a concentration of 250 nM unless otherwise indicated. The BWE was prepared and analyzed as described in Example 1. Two μL of the BWE were added directly to cells unless otherwise indicated. […] Myo-inositol (Sigma-Aldrich Canada Ltd.) and D-chiro-inositol (Industrial Research Ltd., Wellington, New Zealand) were dissolved in water at an equal concentration to the amounts present in the BWE (Table 3) and 2 μL of each solution (0.1% v/v final concentration) was added directly to cells.
Rat H4IIE hepatoma cells (American Type Culture Collection, CRL 1548) were cultured following the method disclosed by Yau et al., (1998, Eur. J. Biochem. 253: 91-1). The H4IIE cells were maintained in α-modified Eagle's media containing 10% FBS, 2 mM glutamine, 25 μg·mL^−1 streptomycin and 25 units·mL^−1 penicillin. Cells were plated and grown to 70% confluence. All cells were placed into serum-free medium for 72 h before addition of stimulating agents to ensure entry into a quiescent state.
Cultures of quiescent H4IIE cells or quiescent FAO cells were placed into 12-well culture dishes containing 2 mL serum-free medium, and then stimulated by direct addition of the inhibitors listed in Table 1 (volumes of additions were 10 μL or less) without replacing the medium. […] The cells in 12-well culture dishes were incubated with stimulating agents for 6 minutes and rinsed with phosphate buffered saline (PBS; 0.9% NaCl, 0.1 M Na3PO4, pH 7.1).
(§1) Cellular protein extracts were prepared by addition of 200 μL 2×SDS/gel loading buffer (0.125 M Tris pH 6.8, 2% SDS, 10% glycerol) to H4IIE cells in 12-well culture dishes. The samples were briefly sonicated, and protein content measured using the BCA protein assay kit. Aliquots containing equal amounts of protein were mixed with bromophenol blue (0.5% (w/v) final concentration) and 2-mercaptoethanol (5% (v/v) final concentration), heated at 95° C. and loaded onto 7.5% or 10% polyacrylamide gels. […] Primary antibodies (diluted 1:1000 in 3% (w/v) BSA) were incubated with the membrane for 60 min at 22° C. Membranes were subsequently washed four times and incubated for an additional 60 min at 1 8-22° C. in 1% (w/v) BSA-TBST with diluted HRP-coupled secondary antibody (1:10 000). HRP was detected using the ECL chemiluminescent system after the membranes had been washed four times.
Quantification of data obtained on film (Kodak X-omat) was accomplished with a GS800 imaging densitometer (Bio-Rad Laboratories) under nonsaturating conditions with local background subtraction. Although multiple exposures were acquired to ensure the absence of film saturation, the experimental figures typically show longer exposures selected specifically for visual presentation and not necessarily used for data analysis. Graphical data are presented as means±SE for a minimum of three replicate samples. […]
For orientation: In western blotting, separated proteins are transferred to a membrane and probed.

The subject of experiment [2] is Src (Tyr527). As to the kind of experiment: Western blot of Src phosphorylation in H4IIE cells. As to conditions: 6 minutes. Here is the method: Tissue culture media, antibiotics, fetal bovine serum (FBS) and Nunc tissue culture plates were purchased from Invitrogen Canada Inc. (Burlington, Ontario, Canada, L7P 1A1). Insulin (Sigma-Aldrich Canada Ltd., Oakville, Ontario, Canada, L6H 6J8) was dissolved in water and added directly to cells at a concentration of 250 nM unless otherwise indicated. The BWE was prepared and analyzed as described in Example 1. Two μL of the BWE were added directly to cells unless otherwise indicated. This amount was chosen on the basis of equivalence to insulin. Myo-inositol (Sigma-Aldrich Canada Ltd.) and D-chiro-inositol (Industrial Research Ltd., Wellington, New Zealand) were dissolved in water at an equal concentration to the amounts present in the BWE (Table 3) and 2 μL of each solution (0.1% v/v final concentration) was added directly to cells.
Rat H4IIE hepatoma cells (American Type Culture Collection, CRL 1548) were cultured following the method disclosed by Yau et al., (1998, Eur. J. Biochem. 253: 91-1). The H4IIE cells were maintained in α-modified Eagle's media containing 10% FBS, 2 mM glutamine, 25 μg·mL^−1 streptomycin and 25 units·mL^−1 penicillin. Cells were plated and grown to 70% confluence. All cells were placed into serum-free medium for 72 h before addition of stimulating agents to ensure entry into a quiescent state. […]
Cellular protein extracts were prepared by addition of 200 μL 2×SDS/gel loading buffer (0.125 M Tris pH 6.8, 2% SDS, 10% glycerol) to H4IIE cells in 12-well culture dishes. The samples were briefly sonicated, and protein content measured using the BCA protein assay kit. […] HRP was detected using the ECL chemiluminescent system after the membranes had been washed four times.
(§2) Quantification of data obtained on film (Kodak X-omat) was accomplished with a GS800 imaging densitometer (Bio-Rad Laboratories) under nonsaturating conditions with local background subtraction. […]

Experiment [3] deals with mitogen-activated protein kinase (MAPK). The experiment is described as follows: Western blot of MAPK phosphorylation in FAO hepatoma cells. On the procedure: FAO cells are related to H4IIE since both cell lines were derived from Reuber H35 cells (Richardson et al., 1969, J. Cell Biol. 40: 236-247). […] FAO hepatoma cells were propagated under the same culture conditions used for H4IIE cells. Quiescent FAO cells were obtained by placing the cells into serum-free medium for 3 days.
Cultures of quiescent H4IIE cells or quiescent FAO cells were placed into 12-well culture dishes containing 2 mL serum-free medium, and then stimulated by direct addition of the inhibitors listed in Table 1 (volumes of additions were 10 μL or less) without replacing the medium. Inhibitors were added 10 minutes before the stimulating agents except for pertussis toxin which was added 4 hours prior. The cells in 12-well culture dishes were incubated with stimulating agents for 6 minutes and rinsed with phosphate buffered saline (PBS; 0.9% NaCl, 0.1 M Na3PO4, pH 7.1).
as §1, §2

[4] abbreviates: insulin-stimulated, 6 min, 15-min preincubation with the inhibitor (None = insulin alone), one experiment.

As for `O[C@H]1[C@H](O)[C@@H](O)[C@H](O)[C@@H](O)[C@H]1O` [MI, myo-inositol], the “phosphorylation of MAPK (FIG. 9)” value in experiment [1] is reported as “neither D-CI nor MI increased phosphorylation”. For the same compound, the “phosphorylation of Src” value in experiment [2] was “do not provide comparable stimulation”. Also, in experiment [3], the “phosphorylation of MAPK in FAO cells (FIG. 10)” value (shortened to “phosphorylation … (FIG. 10)”) is reported as “did not”.
As to `COc1cccc(-c2cc(=O)c3ccccc3o2)c1N` [PD98059], the “p42/44 P-MAPK (Thr202/Tyr204) phosphorylation, stimulation (fold) relative to the control” value in experiment [1] (BWE-stimulated, 6 min, 15-min preincubation with the inhibitor (None = BWE alone), one experiment) stood at 1.00 fold; in experiment [1] (setting [4]), 1 fold. Moreover, in experiment [1] (preincubation with inhibitor, then insulin or BWE for 6 minutes), the “effect of the inhibitor on insulin- and BWE-stimulated phosphorylation of MAPK” value is listed as “inhibited”.
Take “insulin: Insulin (Sigma-Aldrich) dissolved in water, positive comparator”: the “phosphorylation of MAPK (FIG. 9)” value in experiment [1] is recorded as “increased the phosphorylation of MAPK”. Also, in experiment [1] (insulin treatment, 6 min, 15-min preincubation with PKA/PKC inhibitor (None = insulin alone), one experiment), the “phosphorylation of MAPK, stimulation (fold) relative to the control (Table 6)” value is 3.53 fold. For the same compound, the “p42/44 P-MAPK (Thr202/Tyr204) phosphorylation, stimulation (fold) relative to the control” value in experiment [1] (setting [4]) is recorded as 13.3 fold. Besides, the “phosphorylation of Src” value in experiment [2] is “phosphorylated in response to insulin”. For the same compound, the “phosphorylation … (FIG. 10)” value in experiment [3] was “stimulated MAPK phosphorylation”.
For the compound `OC1C(O)C(O)C(O)C(O)C1O` [D-CI, D-chiro-inositol], the “phosphorylation of MAPK (FIG. 9)” value in experiment [1] is listed as “neither D-CI nor MI increased phosphorylation”. The “phosphorylation of Src” value in experiment [2] is “do not provide comparable stimulation”. Also, in experiment [3], the “phosphorylation … (FIG. 10)” value is listed as “did not”.

Source of the values: US7993687B2, “Compositions and methods for management of diabetes” (priority 2006, dated 2011).
